Measured values published in US10913780B2, “Conjugates, their compositions, their uses, and their methods of making” (THE ADMINISTRATORS OF THE TULANE EDUCATIONAL FUND, priority 2016, dated 2021).
Bridge positions count the residues as written; N and C are the ends. Square brackets hold non-standard residues; d marks the D form. * marks the point of attachment. 4‑mercaptophenylacetyl = O=C(Cc1ccc(S)cc1)*; Nle = CCCC[C@H](N)C(=O)O

Test system: activated human T-cells (Jurkat)
Assay: Inhibition of IL-2 release from a culture of activated human T-cells (Jurkat)
Format: cell-based
Settings: for inhibition of IL-2 release: Jurkat cells stimulated with lectin and Phorbol, overnight, potency compared with tacrolimus (FK-506); for effect on IL-2 release in the presence of increasing amounts of lanreotide: large excess of the somatostatin type 2 agonist lanreotide
Protocol: Cells were harvested, washed twice, and re-suspended in serum-free medium at a cell density of 4×10^6 cells/ml. Fifty μl of cell suspension was then added to each well of 96-well plates followed by 50 μl of tested compounds at different concentration (4×) for 1 hour at 37° C. The cells were stimulated to release IL-2 by adding 50 μl of lectin in PBS (10 μg/ml) and 50 μl of Phorbol in DMSO (100 ng/ml) to each well and continuing overnight incubation. The plates were centrifuged for 10 min at 1500 rpm and supernatants harvested for IL-2 assay using kits purchased from R&D Systems (Minneapolis, Minn.) and following the experimental directions provided.

Row | Compound | inhibition of IL-2 release | inhibition of IL-2 release (listed as 32-thiol analog of tacrolimus) | inhibition of IL-2 release (listed as tacrolimus-32-SH) | effect on IL-2 release in the presence of increasing amounts of lanreotide | effect on IL-2 release in the presence of increasing amounts of lanreotide (listed as tacrolimus-32-SH-somatostatin)
1 | C=CC[C@@H]1/C=C(\C)C[C@H](C)C[C@H](OC)[C@H]2O[C@@](O)(C(=O)C(=O)N3CCCC[C@H]3C(=O)O[C@H](/C(C)=C/[C@@H]3CC[C@@H](O)[C@H](OC)C3)[C@H](C)[C@@H](O)CC1=O)[C@H](C)C[C@@H]2OC [Tacrolimus, reference compound] | potent inhibitor |  |  |  | 
2 | C=CC[C@@H]1/C=C(\C)C[C@H](C)C[C@H](OC)[C@H]2O[C@@](O)(C(=O)C(=O)N3CCCC[C@H]3C(=O)O[C@H](/C(C)=C/[C@@H]3CCC(S)[C@H](OC)C3)[C@H](C)[C@@H](O)CC1=O)[C@H](C)C[C@@H]2OC (stereo partly drawn) [tacrolimus-32-thiol, Tacrolimus-32-Thiol] |  | virtually equipotent with the parent compound | equivalent potencies |  | 
3 | Example 10: Tacrolimus-32-thiol linked by a disulfide bond (4-mercaptophenylacetic acid) to the cyclized somatostatin analog peptide of Example 9 ({tacrolimus‑32‑thiol (disulfide)-4‑mercaptophenylacetyl}-[dS]S[dS]S[dS][Nle][dY][dS]CF[dW]KTCT-NH2; disulfide 9-14) | virtually equipotent |  |  | blocked the IL-2 release inhibiting capability | Blockade of biological activity
